US9242941B2, “Alkyl, fluoroalkyl-1,4-benzodiazepinone compounds” (BRISTOL-MYERS SQUIBB COMPANY, priority 2012, dated 2016)

What was measured:
[1] = human metabolic stability half-life assay; settings: microsomes, human liver microsomes
Method: Metabolic Stability Half-Life Panel
Incubation with Liver Microsomes

human Notch 3 = assay: Notch-CBF1 Transactivation Assay (Notch 3); type: cell-based; settings: read-out: Notch 3 IC50; Notch-CBF1 transactivation luciferase assay in transfected HeLa cells; some values are an average of N experiments
Excerpt: (§1) Notch-CBF1 Transactivation Assay
(§2) The Notch-CBF1 (C-promoter binding factor I) cell based transactivation assay is based on the ability of the released Notch intracellular domain fragments (NICDs) to function as transcription factors in conjunction with CBF1 and other nuclear factors. Luciferase assays were used to measure the antagonism of Notch-CBF1 transcriptional activity. HeLa cervical cancer cells are transiently co-transfected with pCDNA3.1/Hygro plasmids containing truncated Notch 1, Notch 2, Notch 3, or Notch 4 receptors and a PGL3 luciferase reporter vector containing 4 copies of CBF1 binding site. The cells were then tested for Notch-CBF1 activity in the absence or presence of test compounds. HeLa cells, maintained in DMEM (high glucose with HEPES), 1× glutamine/penicillin/streptomycin and 10% Fetal Bovine serum, were transiently transfected in a T175 Flask (4.5×10^6 cells/flask) using the Monster Transfection Kit (Minis #MIR2906) according to manufacturers specifications. Table 13 denotes respective DNA quantity for the transfections.
(§3) Assay media (5 μL) containing test compounds in final concentrations ranging from 5 μM to 8.4×10^−5 μM (3 fold serial dilutions) were added to the cells and the cell plates were then incubated for 18 hours at 37° C. and 5% CO2. Control wells contained DMSO vehicle (total counts) or 0.5 μM of an in-house small molecule inhibitor (background counts). Duplicates were used for each sample. Luciferase activity was measured after a 20-minute incubation with 50 μl STEADY-GLO® luciferase reagents according to manufacturer's specifications (Promega, Cat. #E2550) and analyzed by Envision plate reader (PerkinElmer, Boston, Mass.).
(§4) The antagonist effect of compounds was expressed as 100×[1−(average sample−average background)/(average total−average background)] where sample is the luciferase activity in the presence of test compound, background is equal to the luciferase activity in the presence of the small molecule inhibitor control and the total is signal induced in DMSO wells.

human Notch 1 = assay: Notch-CBF1 Transactivation Assay (Notch 1); type: cell-based; settings: read-out: Notch 1 IC50; Notch-CBF1 transactivation luciferase assay in transfected HeLa cells; some values are an average of N experiments
Excerpt: as §1, §2, §3, §4

[2] = pH 7.4, CYP-mediated metabolic stability half life, NADPH-dependent
[3] = pH 7.4, HLM (t1/2, min), CYP-mediated (NADPH-dependent), 0.5 μM compound, 45 min time course, some values are an average of N experiments

Structure (SMILES) | half-life at 0.5 µM [1, 2] [min] | half-life at 0.5 µM [1, 3] [min] | IC50 (human Notch 3) [nM] | IC50 (human Notch 1) [nM]
COc1cccc2c1NC(=O)[C@@H](NC(=O)[C@H](CCC(F)(F)F)[C@H](CC1CC1)C(N)=O)N=C2c1cccc(C(F)(F)F)c1 [Example 2, (2R,3S)-3-(Cyclopropylmethyl)-N-((3S)-9-methoxy-2-oxo-5-(3-(trifluoromethyl)phenyl)-2,3-dihydro-1H-1,4-benzodiazepin-3-yl)-2-(3,3,3-trifluoropropyl)succinamide] | ≥ 30 | 46 | 1.5 | 1.7
CCC[C@H](C(N)=O)[C@@H](CCC(F)(F)F)C(=O)N[C@H]1N=C(c2ccccc2)c2cccc(C#N)c2NC1=O [Example 32, (2R,3S)—N-((3S)-9-Cyano-2-oxo-5-phenyl-2,3-dihydro-1H-1,4-benzodiazepin-3-yl)-3-propyl-2-(3,3,3-trifluoropropyl)succinamide] | ≥ 30 | 55 | 19.7 | 8.3
NC(=O)[C@@H](CC1CC1)[C@@H](CCC(F)(F)F)C(=O)N[C@H]1N=C(c2ccccc2)c2cccc(OC3CC3)c2NC1=O [Example 6, (2R,3S)-3-(Cyclopropylmethyl)-N-((3S)-9-(cyclopropyloxy)-2-oxo-5-phenyl-2,3-dihydro-1H-1,4-benzodiazepin-3-yl)-2-(3,3,3-trifluoropropyl)succinamide] | ≥ 30 | 83 | 8.6 | 7.2
C=CC[C@H](C(N)=O)[C@@H](CC(C)C)C(=O)N[C@H]1N=C(c2ccccc2)c2cc(Cl)ccc2N(C)C1=O [Comparative Compound 57, reference compound] | ≤ 9 | – | – | –
Cc1ccc(C2=N[C@H](NC(=O)[C@H](CCC(F)(F)F)[C@H](CC3CC3)C(N)=O)C(=O)Nc3c(F)cccc32)cc1 [Example 16, (2R,3S)-3-(Cyclopropylmethyl)-N-((3S)-9-fluoro-5-(4-methylphenyl)-2-oxo-2,3-dihydro-1H-1,4-benzodiazepin-3-yl)-2-(3,3,3-trifluoropropyl)succinamide] | ≥ 30 | 75 | 16 | 3.8
NC(=O)[C@@H](CC1CC1)[C@@H](CCC(F)(F)F)C(=O)N[C@H]1N=C(c2ccc(Cl)cc2)c2cccc(C3CC3)c2NC1=O [Example 7, (2R,3S)—N-((3S)-5-(4-Chlorophenyl)-9-cyclopropyl-2-oxo-2,3-dihydro-1H-1,4-benzodiazepin-3-yl)-3-(cyclopropylmethyl)-2-(3,3,3-trifluoropropyl)succinamide] | ≥ 30 | 97 | 3.3 | 2
CCC[C@H](C(N)=O)[C@@H](CCC(F)(F)F)C(=O)N[C@H]1N=C(c2ccccc2)c2cccc(Cl)c2NC1=O [Example 43, (2R,3S)—N-((3S)-9-Chloro-2-oxo-5-phenyl-2,3-dihydro-1H-1,4-benzodiazepin-3-yl)-3-propyl-2-(3,3,3-trifluoropropyl)succinamide] | ≥ 30 | 30 | 4.8 | 3.3
NC(=O)[C@@H](CC1CC1)[C@@H](CCC(F)(F)F)C(=O)N[C@H]1N=C(c2cccc(F)c2)c2cccc(OC3CC3)c2NC1=O [Example 5, (2R,3S)-3-(Cyclopropylmethyl)-N-((3S)-9-(cyclopropyloxy)-5-(3-fluorophenyl)-2-oxo-2,3-dihydro-1H-1,4-benzodiazepin-3-yl)-2-(3,3,3-trifluoropropyl)succinamide] | ≥ 30 | 74 | 8.9 | 5.1
NC(=O)[C@@H](CC1CC1)[C@@H](CCC(F)(F)F)C(=O)N[C@H]1N=C(c2cccc(Cl)c2)c2cccc(Cl)c2NC1=O [Example 26, (2R,3S)—N-((3S)-9-Chloro-5-(3-chlorophenyl)-2-oxo-2,3-dihydro-1H-benzo[e][1,4]diazepin-3-yl)-3-(cyclopropylmethyl)-2-(3,3,3-trifluoropropyl)succinamide] | ≥ 30 | 96 | 2.1 | 1.9
Cc1cccc(C2=N[C@H](NC(=O)[C@H](CCC(F)(F)F)[C@H](CC3CC3)C(N)=O)C(=O)Nc3c(O)cccc32)c1 [Example 8, (2R,3S)-3-(Cyclopropylmethyl)-N-((3S)-9-hydroxy-5-(3-methylphenyl)-2-oxo-2,3-dihydro-1H-1,4-benzodiazepin-3-yl)-2-(3,3,3-trifluoropropyl)succinamide] | ≥ 30 | 37 | 15.7 | 5.6
NC(=O)[C@@H](CC1CC1)[C@@H](CCC(F)(F)F)C(=O)N[C@H]1N=C(c2ccccc2)c2cccc(Cl)c2NC1=O [Example 42, (2R,3S)—N-((3S)-9-Chloro-2-oxo-5-phenyl-2,3-dihydro-1H-1,4-benzodiazepin-3-yl)-3-(cyclopropylmethyl)-2-(3,3,3-trifluoropropyl)succinamide] | ≥ 30 | 87 | 3.5 | 1.9
Cc1cc(F)c2c(c1)C(c1ccccc1)=N[C@H](NC(=O)[C@H](CCC(F)(F)F)[C@H](CC1CC1)C(N)=O)C(=O)N2 [Example 17, (2R,3S)-3-(Cyclopropylmethyl)-N-((3S)-9-fluoro-7-methyl-2-oxo-5-phenyl-2,3-dihydro-1H-1,4-benzodiazepin-3-yl)-2-(3,3,3-trifluoropropyl)succinamide] | ≥ 30 | 60 | 26.4 | 9.7
NC(=O)[C@@H](CC1CC1)[C@@H](CCC(F)(F)F)C(=O)N[C@H]1N=C(c2ccc(Cl)cc2)c2cccc(Cl)c2NC1=O [Example 27, (2R,3S)—N-((3S)-9-Chloro-5-(4-chlorophenyl)-2-oxo-2,3-dihydro-1H-1,4-benzodiazepin-3-yl)-3-(cyclopropylmethyl)-2-(3,3,3-trifluoropropyl)succinamide] | ≥ 30 | 81 | 1.6 | 4.6
Cc1ccc2c(c1F)NC(=O)[C@@H](NC(=O)[C@H](CCC(F)(F)F)[C@H](CC1CC1)C(N)=O)N=C2c1ccccc1 [Example 18, (2R,3S)-3-(Cyclopropylmethyl)-N-((3S)-9-fluoro-8-methyl-2-oxo-5-phenyl-2,3-dihydro-1H-1,4-benzodiazepin-3-yl)-2-(3,3,3-trifluoropropyl)succinamide] | ≥ 30 | > 120 | 6.9 | 6.5
CCC[C@H](C(N)=O)[C@@H](CCC(F)(F)F)C(=O)N[C@H]1N=C(c2ccc(Cl)cc2)c2cccc(Cl)c2NC1=O [Example 28, (2R,3S)—N-((3S)-9-Chloro-5-(4-chlorophenyl)-2-oxo-2,3-dihydro-1H-1,4-benzodiazepin-3-yl)-3-propyl-2-(3,3,3-trifluoropropyl)succinamide] | ≥ 30 | 39 | 1.7 | 1.7
CCC[C@H](C(N)=O)[C@@H](CCC(F)(F)F)C(=O)N[C@H]1N=C(c2ccc(Cl)cc2)c2cccc(OC)c2NC1=O [Example 25, (2R,3S)—N-((3S)-5-(4-Chlorophenyl)-9-methoxy-2-oxo-2,3-dihydro-1H-1,4-benzodiazepin-3-yl)-3-propyl-2-(3,3,3-trifluoropropyl)succinamide] | ≥ 30 | 31 | 5.6 | 6.8
Cc1cccc(C2=N[C@H](NC(=O)[C@H](CCC(F)(F)F)[C@H](CC3CC3)C(N)=O)C(=O)Nc3c(Cl)cccc32)c1 [Example 30, (2R,3S)—N-((3S)-9-Chloro-5-(3-methylphenyl)-2-oxo-2,3-dihydro-1H-1,4-benzodiazepin-3-yl)-3-(cyclopropylmethyl)-2-(3,3,3-trifluoropropyl)succinamide] | ≥ 30 | 74 | 5.2 | 2.5
CCCC[C@H](C(N)=O)[C@@H](CC(C)C)C(=O)N[C@H]1N=C(c2ccc(Cl)cc2)c2ccccc2N(C)C1=O [Comparative Compound 58, reference compound] | ≤ 9 | – | – | –
C=CC[C@H](C(N)=O)[C@@H](CC(C)C)C(=O)N[C@H]1N=C(c2ccccc2)c2ccccc2N(CCC)C1=O [Comparative Compound 59, reference compound] | ≤ 9 | – | – | –
